In paper PMC10120535, “Identification of new 4-(6-oxopyridazin-1-yl)benzenesulfonamides as multi-target anti-inflammatory agents targeting carbonic anhydrase, COX-2 and 5-LOX enzymes: synthesis, biological evaluations and modelling insights” (Journal of Enzyme Inhibition and Medicinal Chemistry, 2023):

Assays:
mice = assay: acetic acid writhing test (analgesic activity); format: in vivo; details: for Number of writhing (20 min) (Mean ± SD): n = 5, control 40 ± 2.9
Excerpt: (§1) The experimental procedures adopted to perform the acetic acid-induced writhing assay for the analgesic activities,[45] Paw edoema assay for the anti-inflammatory activities,[46] as well as the acute ulcerogenic test[47] have been carried out as described previously.

rat paw edoema = assay: carrageen-induced rat paw edoema assay (anti-inflammatory activity); format: in vivo; parameters: Anti-inflammatory activity (% inhibition of edoema) 3 h: concentration or dose not given beside the values; details: for FIF% change in paw height (Mean ± SD) 0 h / FIF% change in paw height (Mean ± SD) 1 h / FIF% change in paw height (Mean ± SD) 2 h / FIF% change in paw height (Mean ± SD) 3 h: n = 5
Excerpt: as §1

gastric tissue of rats = assay: acute ulcerogenic test, histopathology of gastric tissue; format: in vivo; details: fasted rat stomach, H & E stain
Excerpt: as §1

5-LOX = assay: LOX inhibitory screening assay kit; format: biochemical; details: mean from 3 different assays
COX-1 = biological target: T1, COX-1 (Ovis aries, UniProt P05979); assay: COX Inhibitor screening ELISA assay kit, COX-1
T1 sequence (P05979 25-600): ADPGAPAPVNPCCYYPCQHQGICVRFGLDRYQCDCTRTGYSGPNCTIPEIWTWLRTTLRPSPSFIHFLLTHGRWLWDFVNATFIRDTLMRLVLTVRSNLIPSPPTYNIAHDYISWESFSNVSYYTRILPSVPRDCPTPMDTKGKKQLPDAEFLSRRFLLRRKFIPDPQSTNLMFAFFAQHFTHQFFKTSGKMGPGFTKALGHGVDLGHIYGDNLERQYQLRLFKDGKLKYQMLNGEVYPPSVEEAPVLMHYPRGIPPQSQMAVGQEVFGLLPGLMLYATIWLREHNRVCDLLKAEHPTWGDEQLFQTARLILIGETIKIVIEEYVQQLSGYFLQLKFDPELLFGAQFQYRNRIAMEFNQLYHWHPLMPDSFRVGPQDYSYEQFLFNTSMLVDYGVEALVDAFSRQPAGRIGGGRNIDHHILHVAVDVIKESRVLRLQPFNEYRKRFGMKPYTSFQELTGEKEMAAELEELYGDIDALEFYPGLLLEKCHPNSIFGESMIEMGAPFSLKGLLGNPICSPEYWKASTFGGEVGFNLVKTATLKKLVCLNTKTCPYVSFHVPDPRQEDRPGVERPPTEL

COX-2 = biological target: T2, COX-2 (Homo sapiens, UniProt P35354); assay: COX Inhibitor screening ELISA assay kit, COX-2
T2 sequence (P35354 18-604): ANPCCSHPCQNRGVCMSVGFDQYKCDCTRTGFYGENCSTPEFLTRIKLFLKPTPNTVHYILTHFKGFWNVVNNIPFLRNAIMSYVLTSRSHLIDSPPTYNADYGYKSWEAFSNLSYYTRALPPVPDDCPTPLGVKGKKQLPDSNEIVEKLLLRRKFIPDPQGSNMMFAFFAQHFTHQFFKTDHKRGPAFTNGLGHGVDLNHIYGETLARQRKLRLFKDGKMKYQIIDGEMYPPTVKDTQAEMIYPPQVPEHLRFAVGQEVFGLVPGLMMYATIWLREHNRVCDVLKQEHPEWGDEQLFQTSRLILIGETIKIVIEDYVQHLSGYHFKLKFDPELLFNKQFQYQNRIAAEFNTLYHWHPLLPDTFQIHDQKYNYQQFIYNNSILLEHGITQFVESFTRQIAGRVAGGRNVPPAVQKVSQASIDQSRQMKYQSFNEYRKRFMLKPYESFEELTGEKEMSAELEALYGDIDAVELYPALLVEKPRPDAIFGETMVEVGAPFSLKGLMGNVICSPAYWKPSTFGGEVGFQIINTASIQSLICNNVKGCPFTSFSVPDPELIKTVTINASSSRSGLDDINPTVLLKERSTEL

TNF-α = assay: serum TNF-α level by ELISA after paw edoema test; format: in vivo, rat; details: compared to the positive control group, n = 5
Excerpt: (§2) ELISA assays were used to assess the serum level for the inflammatory mediators TNF-α (Kit Cat. No MBS355371, MyBioSource, USA), and IL-1β (Kit Cat. No MBS8825017, MyBioSource, USA) based on the manufacture instructions.[54]

IL-1β = assay: serum IL-1β level by ELISA after paw edoema test; format: in vivo, rat; details: compared to the positive control group, n = 5
Excerpt: as §2

Row | Structure (SMILES) | Analgesic activity (% protection) (mice) | Number of writhing (20 min) (Mean ± SD) (mice) | FIF% change in paw height (Mean ± SD) 0 h (rat paw edoema) | FIF% change in paw height (Mean ± SD) 1 h (rat paw edoema) | FIF% change in paw height (Mean ± SD) 2 h (rat paw edoema) | Anti-inflammatory activity (% inhibition of edoema) 3 h (rat paw edoema) | FIF% change in paw height (Mean ± SD) 3 h (rat paw edoema) | Ulcerogenic effect on gastric tissue (histopathological examination) (gastric tissue of rats) | IC50 (5-LOX) | IC50 (COX-1) | IC50 (COX-2) | Serum level of TNF-α (TNF-α) | Serum level of IL-1β (IL-1β)
1 | Cc1ccc(-c2cc(C(F)(F)F)nn2-c2ccc(S(N)(=O)=O)cc2)cc1 [Celecoxib, reference compound] | 60.0% | 16 ± 0.9 | 0.5 ± 0.07% | 0.44 ± 0.09% | 0.52 ± 0.04% | 38.5% | 0.48 ± 0.04 % | normal texture | – | – | – | – | –
2 | NS(=O)(=O)c1ccc(-n2nc(O)ccc2=O)cc1 [Compound 3, 4–(3-Hydroxy-6-oxopyridazin-1(6H)-yl)benzenesulfonamide] | – | – | – | – | – | – | – | – | 2 µM | 11.5 µM | 0.07 µM | – | –
3 | NS(=O)(=O)c1ccc(-n2nc(OCc3ccccc3)ccc2=O)cc1 [Compound 5a, 4–(3-(Benzyloxy)-6-oxopyridazin-1(6H)-yl)benzenesulfonamide] | – | – | – | – | – | – | – | – | 7 µM | 5 µM | 0.11 µM | – | –
4 | NS(=O)(=O)c1ccc(-n2nc(OCc3ccc([N+](=O)[O-])cc3)ccc2=O)cc1 [Compound 5b, 4–(3-((4-Nitrobenzyl)oxy)-6-oxopyridazin-1(6H)-yl)benzenesulfonamide] | – | – | – | – | – | – | – | – | 5 µM | 9.5 µM | 0.14 µM | – | –
5 | N#Cc1ccc(COc2ccc(=O)n(-c3ccc(S(N)(=O)=O)cc3)n2)cc1 [Compound 5c, 4–(3-((4-Cyanobenzyl)oxy)-6-oxopyridazin-1(6H)-yl)benzenesulfonamide] | – | – | – | – | – | – | – | – | 7 µM | 6.5 µM | 0.07 µM | – | –
6 | CS(=O)(=O)Oc1ccc(=O)n(-c2ccc(S(N)(=O)=O)cc2)n1 [Compound 7a, 6-Oxo-1–(4-sulfamoylphenyl)-1,6-dihydropyridazin-3-yl methanesulfonate] | 67.5% | – | 0.52 ± 0.04% | 0.46 ± 0.09% | 0.44 ± 0.05% | 56% | 0.34 ± 0.05 % | normal texture | 3 µM | 10.4 µM | – | significantly lowered | significantly lowered
7 | CCS(=O)(=O)Oc1ccc(=O)n(-c2ccc(S(N)(=O)=O)cc2)n1 [Compound 7b, 6-Oxo-1–(4-sulfamoylphenyl)-1,6-dihydropyridazin-3-yl ethanesulfonate] | 65.0% | – | 0.5 ± 0.07% | 0.44 ± 0.09% | 0.58 ± 0.04% | 38.5% | 0.48 ± 0.03 % | mild inflammation | 2.5 µM | 12.6 µM | 0.06 µM | significantly lowered | significantly lowered
8 | NS(=O)(=O)c1ccc(-n2nc(OS(=O)(=O)c3ccccc3)ccc2=O)cc1 [Compound 7c, 6-Oxo-1–(4-sulfamoylphenyl)-1,6-dihydropyridazin-3-yl benzenesulfonate] | – | – | – | – | – | – | – | – | 4 µM | 8.4 µM | 0.08 µM | – | –
9 | Cc1ccc(S(=O)(=O)Oc2ccc(=O)n(-c3ccc(S(N)(=O)=O)cc3)n2)cc1 [Compound 7d, 6-Oxo-1–(4-sulfamoylphenyl)-1,6-dihydropyridazin-3-yl 4-methylbenzenesulfonate] | – | – | – | – | – | – | – | – | 3.5 µM | 8.4 µM | 0.08 µM | – | –
10 | COc1ccc(S(=O)(=O)Oc2ccc(=O)n(-c3ccc(S(N)(=O)=O)cc3)n2)cc1 [Compound 7e, 6-Oxo-1–(4-sulfamoylphenyl)-1,6-dihydropyridazin-3-yl 4-methoxybenzenesulfonate] | – | – | – | – | – | – | – | – | 5 µM | 6.5 µM | 0.09 µM | – | –
11 | NS(=O)(=O)c1ccc(-n2nc(OS(=O)(=O)c3ccc(F)cc3)ccc2=O)cc1 [Compound 7f, 6-Oxo-1–(4-sulfamoylphenyl)-1,6-dihydropyridazin-3-yl 4-fluorobenzenesulfonate] | – | – | – | – | – | – | – | – | 6.5 µM | 8.5 µM | 0.11 µM | – | –
12 | O=C(O)Cc1ccccc1Nc1c(Cl)cccc1Cl [Diclofenac, reference compound] | 70.0% | 12 ± 1.9 | 0.52 ± 0.04% | 0.28 ± 0.04% | 0.32 ± 0.04% | 59% | 0.32 ± 0.04 % | inflammation and damage to the layers of the stomach | – | – | – | – | –
